Converted amounts (≈) assume the structure as drawn.
Key:
[1] = molecular target: T1, FKBP12 (Aspergillus fumigatus, UniProt Q4WLV6); test: BLI, compound-mediated ternary complex formation, […] compound; assay type: binding
T1 construct: gene fpr1A; biotinylated (Avi-tagged) FKBP12; with CnA-CnB-calmodulin

[2] = molecular target: T2, FKBP12 (Candida albicans, UniProt C4YFI3+C4YS24+P28870); test: as above; assay type: binding
T2 construct: gene RBP1; biotinylated (Avi-tagged) FKBP12; with CnA-CnB-calmodulin

[3] = tested on: Aspergillus flavus; test: microbe, parasite or virus in culture; set-up: species or system Aspergillus fumigatus and other molds; modified CLSI M38-A2 broth microdilution in RPMI 1640, mold growth inhibition (MIC/MEC); settings: Aspergillus flavus; MIC/MEC
Procedure: (§1) In vitro antifungal activities of FK506, FK520, and analogs were assessed in RPMI 1640 (Sigma-Aldrich) for all strains tested. MICs/minimum effective concentrations (MECs) for each drug were measured using modified Clinical and Laboratory Standards Institute (CLSI) M38-A2 and M27-A3 standard in vitro antifungal susceptibility protocols. Broth microdilution assays for MIC/MEC assessment were performed as described previously ([33]). All antifungal assays with C. neoformans were performed at 37°C. Antifungal susceptibility testing for C. albicans was performed in the presence of a uniform 1 μg/mL concentration of fluconazole to sensitize the organism to calcineurin inhibition. MICs/minimum effective concentrations (MECs) were determined for each of the novel analogs against the three major human fungal pathogens, A. fumigatus, C. neoformans, and C. albicans. […] Thus, analogs of FK506 and FK520 can tolerate up to 100-fold reduction in antifungal activity and still be considered for in vivo testing. For C. neoformans, MICs were the most uniform and ranged from 0.2 to 2 μg/mL, which is between 4- and 40-fold reduced for antifungal activity. C. albicans MICs ranged from 0.2 to 6.25 μg/mL, which is between 10- and 312.5-fold reduced for activity. Despite being one of the most difficult to treat fungal infections, all six analogs were active against A. fumigatus with MECs ranging from 1 to 2 μg/mL or a 62.5- to 125-fold reduction in activity. Two FK520 analogs, JH-FK-05 and JH-FK-07, maintained high levels of broad-spectrum antifungal activity across the three species, and JH-FK-07 had the lowest MICs for both C. neoformans and C. albicans. To assess the antifungal activity against other human fungal pathogens, we selected JH-FK-05 to test against a panel of pathogenic molds and drug-resistant A. fumigatus strains (Table S3). JH-FK-05 registered MECs as low as 1 μg/mL for some of these highly recalcitrant species, such as Mucor circinelloides, Rhizopus oryzae, and pan azole-resistant A. fumigatus (strain F14946).

[4] = tested on: T3, Aspergillus fumigatus (Wild-type) (akuBKu80); test: microbe, parasite or virus in culture; set-up: species or system Aspergillus fumigatus and other molds; modified CLSI M38-A2 broth microdilution in RPMI 1640, mold growth inhibition (MIC/MEC); settings: MIC/MEC
T3 construct: akuBKu80
Procedure: as §1

[5] = tested on: T4, Aspergillus fumigatus F12776; test: microbe, parasite or virus in culture; set-up: species or system Aspergillus fumigatus and other molds; modified CLSI M38-A2 broth microdilution in RPMI 1640, mold growth inhibition (MIC/MEC); settings: F12776, MIC/MEC, azole-resistant strain
T4 construct: F12776
Procedure: as §1

[6] = tested on: T5, Aspergillus fumigatus F14946; test: microbe, parasite or virus in culture; set-up: species or system Aspergillus fumigatus and other molds; modified CLSI M38-A2 broth microdilution in RPMI 1640, mold growth inhibition (MIC/MEC); settings: F14946, MIC/MEC, azole-resistant strain
T5 construct: F14946
Procedure: as §1

[7] = tested on: T6, Aspergillus fumigatus F16216; test: microbe, parasite or virus in culture; set-up: species or system Aspergillus fumigatus and other molds; modified CLSI M38-A2 broth microdilution in RPMI 1640, mold growth inhibition (MIC/MEC); settings: F16216, MIC/MEC, azole-resistant strain
T6 construct: F16216
Procedure: as §1

[8] = tested on: T7, Aspergillus fumigatus F16314; test: microbe, parasite or virus in culture; set-up: species or system Aspergillus fumigatus and other molds; modified CLSI M38-A2 broth microdilution in RPMI 1640, mold growth inhibition (MIC/MEC); settings: F16314, MIC/MEC, azole-resistant strain
T7 construct: F16314
Procedure: as §1

[9] = tested on: T8, Aspergillus fumigatus F7075; test: microbe, parasite or virus in culture; set-up: species or system Aspergillus fumigatus and other molds; modified CLSI M38-A2 broth microdilution in RPMI 1640, mold growth inhibition (MIC/MEC); settings: F7075, MIC/MEC, azole-resistant strain
T8 construct: F7075
Procedure: as §1

[10] = tested on: Aspergillus niger; test: microbe, parasite or virus in culture; set-up: species or system Aspergillus fumigatus and other molds; modified CLSI M38-A2 broth microdilution in RPMI 1640, mold growth inhibition (MIC/MEC); settings: Aspergillus niger; MIC/MEC
Procedure: as §1

[11] = tested on: Aspergillus terreus; test: microbe, parasite or virus in culture; set-up: species or system Aspergillus fumigatus and other molds; modified CLSI M38-A2 broth microdilution in RPMI 1640, mold growth inhibition (MIC/MEC); settings: Aspergillus terreus; MIC/MEC
Procedure: as §1

[12] = tested on: Mucor circinelloides; test: microbe, parasite or virus in culture; set-up: species or system Aspergillus fumigatus and other molds; modified CLSI M38-A2 broth microdilution in RPMI 1640, mold growth inhibition (MIC/MEC); settings: Mucor circinelloides; MIC/MEC
Procedure: as §1

[13] = tested on: Paecilomyces variotti; test: microbe, parasite or virus in culture; set-up: species or system Aspergillus fumigatus and other molds; modified CLSI M38-A2 broth microdilution in RPMI 1640, mold growth inhibition (MIC/MEC); settings: Paecilomyces; MIC/MEC
Procedure: as §1

[14] = tested on: Rhizomucor pusilus; test: microbe, parasite or virus in culture; set-up: species or system Aspergillus fumigatus and other molds; modified CLSI M38-A2 broth microdilution in RPMI 1640, mold growth inhibition (MIC/MEC); settings: Rhizomucor; MIC/MEC
Procedure: as §1

[15] = tested on: Rhizopus oryzae; test: microbe, parasite or virus in culture; set-up: species or system Aspergillus fumigatus and other molds; modified CLSI M38-A2 broth microdilution in RPMI 1640, mold growth inhibition (MIC/MEC); settings: Rhizopus arrhizus; MIC/MEC
Procedure: as §1

[16] = tested on: Scedosporium apiospermum; test: microbe, parasite or virus in culture; set-up: species or system Aspergillus fumigatus and other molds; modified CLSI M38-A2 broth microdilution in RPMI 1640, mold growth inhibition (MIC/MEC); settings: Scedosporium apiospermum; MIC/MEC
Procedure: as §1

[17] = tested on: Scedosporium prolificans; test: microbe, parasite or virus in culture; set-up: species or system Aspergillus fumigatus and other molds; modified CLSI M38-A2 broth microdilution in RPMI 1640, mold growth inhibition (MIC/MEC); settings: Lomentospora prolificans; MIC/MEC
Procedure: as §1

[18] = tested on: T9, Cryptococcus neoformans (H99); test: microbe, parasite or virus in culture; set-up: CLSI M27-A3 broth microdilution in RPMI 1640 at 37 C, growth inhibition of C. neoformans (MIC); settings: Cryptococcus neoformans, read-out: MIC (μg/mL) against: / Cryptococcus neoformans (H99)^a
T9 construct: H99
Procedure: as §1, with “activity.” for “activity. Two FK520 analogs, JH-FK-05 and JH-FK-07, maintained high levels of broad-spectrum antifungal activity across the three species, and JH-FK-07 had the lowest MICs for both C. neoformans and C. albicans. To assess the antifungal activity against other human fungal pathogens, we selected JH-FK-05 to test against a panel of pathogenic molds and drug-resistant A. fumigatus strains (Table S3). JH-FK-05 registered MECs as low as 1 μg/mL for some of these highly recalcitrant species, such as Mucor circinelloides, Rhizopus oryzae, and pan azole-resistant A. fumigatus (strain F14946).”

T2 sequence (P28870 whole entry): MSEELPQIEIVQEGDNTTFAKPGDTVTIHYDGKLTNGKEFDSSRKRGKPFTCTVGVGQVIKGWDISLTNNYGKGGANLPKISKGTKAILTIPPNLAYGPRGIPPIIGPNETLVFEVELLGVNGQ
T2 sequence (C4YFI3 54-445): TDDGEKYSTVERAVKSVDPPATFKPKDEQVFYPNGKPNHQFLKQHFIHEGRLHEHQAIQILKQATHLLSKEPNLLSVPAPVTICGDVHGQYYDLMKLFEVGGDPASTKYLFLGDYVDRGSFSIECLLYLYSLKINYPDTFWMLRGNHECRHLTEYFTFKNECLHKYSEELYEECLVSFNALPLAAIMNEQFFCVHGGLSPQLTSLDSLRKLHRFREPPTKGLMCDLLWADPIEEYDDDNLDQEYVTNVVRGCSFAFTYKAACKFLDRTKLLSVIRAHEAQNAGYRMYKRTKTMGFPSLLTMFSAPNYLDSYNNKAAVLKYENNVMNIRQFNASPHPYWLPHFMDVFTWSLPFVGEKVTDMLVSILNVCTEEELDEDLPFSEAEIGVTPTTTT
T2 sequence (C4YS24 1-173): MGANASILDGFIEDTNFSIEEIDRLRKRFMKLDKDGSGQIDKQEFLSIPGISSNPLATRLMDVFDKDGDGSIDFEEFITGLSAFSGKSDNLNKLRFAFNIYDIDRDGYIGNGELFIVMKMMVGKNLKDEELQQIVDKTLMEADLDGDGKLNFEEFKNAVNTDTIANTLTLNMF
T2 sequence (P23286 whole entry partner): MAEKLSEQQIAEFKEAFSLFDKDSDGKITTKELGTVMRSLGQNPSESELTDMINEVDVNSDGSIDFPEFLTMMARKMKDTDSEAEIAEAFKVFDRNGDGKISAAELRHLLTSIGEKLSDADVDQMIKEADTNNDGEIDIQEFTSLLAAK
T1 sequence (Q4WLV6 whole entry): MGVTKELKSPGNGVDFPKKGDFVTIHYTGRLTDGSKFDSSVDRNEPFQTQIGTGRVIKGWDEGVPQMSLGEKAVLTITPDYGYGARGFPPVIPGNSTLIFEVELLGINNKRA
T1 sequence (Q4WUR1 whole entry partner): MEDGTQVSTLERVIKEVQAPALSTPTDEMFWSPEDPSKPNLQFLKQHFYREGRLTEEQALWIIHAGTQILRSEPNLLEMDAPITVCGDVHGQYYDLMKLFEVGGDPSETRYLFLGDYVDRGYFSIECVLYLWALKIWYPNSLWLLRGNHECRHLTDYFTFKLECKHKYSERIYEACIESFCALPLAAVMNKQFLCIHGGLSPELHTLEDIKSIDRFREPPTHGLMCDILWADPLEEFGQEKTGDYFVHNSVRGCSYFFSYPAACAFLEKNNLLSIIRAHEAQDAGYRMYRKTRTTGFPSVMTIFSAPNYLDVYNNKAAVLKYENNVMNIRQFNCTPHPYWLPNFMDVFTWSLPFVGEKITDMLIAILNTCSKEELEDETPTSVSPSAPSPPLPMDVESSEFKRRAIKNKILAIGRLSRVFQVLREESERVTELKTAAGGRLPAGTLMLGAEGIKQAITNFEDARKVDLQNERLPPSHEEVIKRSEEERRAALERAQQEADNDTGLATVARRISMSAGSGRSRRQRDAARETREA

With CC[C@@H]1/C=C(\C)C[C@H](C)C[C@H](OC)[C@H]2O[C@@](O)(C(=O)C(=O)N3CCCC[C@H]3C(=O)O[C@H](/C(C)=C/[C@@H]3CC[C@@H](O)[C@H](OC)C3)[C@H](C)[C@@H](O)C/C1=N/NC(C)=O)[C@H](C)C[C@@H]2OC [JH-FK-05] the “BLI, compound-mediated ternary complex formation, 10 μM compound” value [1] was “target complexes form in the presence of the analogs with affinities similar to those of the parent compounds”, the “BLI, compound-mediated ternary complex formation, 10 μM compound” value [2] was “target complexes form in the presence of the analogs with affinities similar to those of the parent compounds” and the MIC [3] was 1 µg/mL (≈ 1.18 µM). For the same molecule, the MIC [4] was 1 µg/mL (≈ 1.18 µM), the MIC [5] was 2 µg/mL (≈ 2.36 µM) and the MIC [6] was 1 µg/mL (≈ 1.18 µM). The MIC [7] was 1 µg/mL (≈ 1.18 µM), the MIC [8] was 1 µg/mL (≈ 1.18 µM) and the MIC [9] was 2 µg/mL (≈ 2.36 µM). The MIC [10] was less than 1 µg/mL, the MIC [11] was 1 µg/mL (≈ 1.18 µM) and the MIC [12] was 1 µg/mL (≈ 1.18 µM). The MIC [13] was greater than 8 µg/mL, the MIC [14] was greater than 8 µg/mL and the MIC [15] was 1 µg/mL (≈ 1.18 µM). For the same molecule, the MIC [16] was greater than 8 µg/mL, the MIC [17] was greater than 8 µg/mL and the MIC [18] was 1 µg/mL (≈ 1.18 µM).

— paper PMC9239059, “Structure-Guided Synthesis of FK506 and FK520 Analogs with Increased Selectivity Exhibit In Vivo Therapeutic Efficacy against Cryptococcus” (mBio, 2022)
